Assay results: publication PMC11096237, “Utilizing a structure-based virtual screening approach to discover potential LSD1 inhibitors” (Journal of Cancer Research and Clinical Oncology, 2024)
pIC50: −log10 of the molar value.

Biological target: T1, LSD1 (Homo sapiens, UniProt O60341)
T1 construct: gene KDM1A
Test: Amplex Red/HRP-coupled fluorescence demethylase assay with purified recombinant LSD1 and H3K4me2
Format: biochemical
From the text: Amplex Red/HRP-coupled fluorescence demethylase assay with purified recombinant LSD1 and H3K4me2 on LSD1 | […]

pIC50: 7.00
SMILES: O=C(CNC(=O)Cc1ccccc1)NCC(=O)OCC(=O)c1ccc(OCc2ccccc2)cc1 [ZINC10039815]
